In US20250051277A1, “DELIVERY OF THERAPEUTIC ALKALOID COMPOUNDS” (Sensorium Therapeutics, Inc., priority 2021, published 2025):
Read-outs that look alike come from different tables or passages of the source.

Columns and labels:
[1] = type: physicochemical; conditions: SGF with pepsin, pH 1.5, 37° C., 0.5 mM
[2] = Hydrolysis Assay of Example A1 (conversion by LCMS); type: physicochemical; conditions: pH = 2.0, 25° C., 0.5 mM, 0.01M HCl; 0-48 h
Method: The hydrolysis kinetics was under a certain temperature and measured by LCMS at a certain time interval. The corresponding LCMS chromatograms were recorded and the conversions were calculated. The hydrolysis conditions and the data were summarized in below table. LCMS spectra were obtained using Agilent 1200/G1956A or SHIMADZU LCMS-2020. Standard LCMS conditions were as follows (running time 1.55 minutes): • Acidic condition: Mobile Phase A: 0.0375% TFA in water (v/v). Mobile Phase B: 0.01875% TFA in acetonitrile (v/v); Column: Kinetex EVO C18 30*2.1 mm, 5 μm. • Basic condition: Mobile Phase A: 0.025% NH3·H2O in water (v/v). Mobile Phase B: Acetonitrile; Column: Kinetex EVO C18 2.1×30 mm, 5 μm. • Conversion (%)=peak area 1/(peak area 1+peak area 2)*100%, peak area 1 is the integration of hydrolyzed product, peak area 2 is the integration of starting material.

[3] = type: physicochemical; conditions: DI water, 25° C., 0.5 mM
[4] = Plasma Stability Assay of Example A4, human plasma; conditions: 37° C., 10 μM
[5] = Plasma Stability Assay of Example A4, rat plasma; conditions: 37° C., 10 μM
[6] = 5 μM
[7] = 5 μM; remark: listed apart in the source
[8] = Plasma Stability Assay of Example A3, human plasma; conditions: 5 μM, 37° C., % of prodrug compound remaining
[9] = Plasma Stability Assay of Example A3, mouse plasma; conditions: 5 μM, 37° C., % of prodrug compound remaining
[10] = 10 μM
[11] = 10 μM; remark: listed apart in the source

COc1ccc([C@@]23CCC(OC(C)=O)=C[C@@H]2N(C)CC3)cc1OC [Compound 026, [(3aS,7aS)-3a-(3,4-dimethoxyphenyl)-1-methyl-3,4,5,7a-tetrahydro-2H-indol-6-yl]acetate]
Condition 1 Conversion (%) ([1]; time 1 min): 0%
Condition 1 Conversion (%) ([1]; time 5 min): 0%
Condition 1 Conversion (%) ([1]; time 30 min): 0%
Condition 1 Conversion (%) ([1]; time 1 h): 0%
Condition 1 Conversion (%) ([1]; time 4 h): 0%
Condition 1 Conversion (%) ([1]; time 24 h): 0%
Conversion (%) [2]: 0%
Notes (hydrolysis) [2]: Stable;
Condition 2 Conversion (%) ([3]; time 1 min): 0%
Condition 2 Conversion (%) ([3]; time 5 min): 0%
Condition 2 Conversion (%) ([3]; time 30 min): 0%
Condition 2 Conversion (%) ([3]; time 1 h): 0%
Condition 2 Conversion (%) ([3]; time 4 h): 0%
Condition 2 Conversion (%) ([3]; time 24 h): 0%
Compound 001 (%) (metabolite mesembrine), Human Plasma ([4]; time 0.0 min): >99%
Prodrug (%) remaining, Human Plasma ([4]; time 0.0 min): 100.0%
Compound 001 (%) (metabolite mesembrine), Human Plasma ([4]; time 10 min): >99%
Prodrug (%) remaining, Human Plasma ([4]; time 10 min): 40.3%
Compound 001 (%) (metabolite mesembrine), Human Plasma ([4]; time 30 min): >99%
Prodrug (%) remaining, Human Plasma ([4]; time 30 min): 23.5%
Compound 001 (%) (metabolite mesembrine), Human Plasma ([4]; time 60 min): >99%
Prodrug (%) remaining, Human Plasma ([4]; time 60 min): 12.0%
Compound 001 (%) (metabolite mesembrine), Human Plasma ([4]; time 120 min): >99%
Prodrug (%) remaining, Human Plasma ([4]; time 120 min): 3.4%
Compound 001 (%) (metabolite mesembrine), Human Plasma ([4]; time 240 min): >99%
Prodrug (%) remaining, Human Plasma ([4]; time 240 min): 0.8%
Compound 001 (%) (metabolite mesembrine), Rat Plasma ([5]; time 0.0 min): 96.2%
Prodrug (%) remaining, Rat Plasma ([5]; time 0.0 min): 100.0%
Compound 001 (%) (metabolite mesembrine), Rat Plasma ([5]; time 10 min): >99%
Prodrug (%) remaining, Rat Plasma ([5]; time 10 min): 0.0%
Compound 001 (%) (metabolite mesembrine), Rat Plasma ([5]; time 30 min): >99%
Prodrug (%) remaining, Rat Plasma ([5]; time 30 min): 0.0%
Compound 001 (%) (metabolite mesembrine), Rat Plasma ([5]; time 60 min): >99%
Prodrug (%) remaining, Rat Plasma ([5]; time 60 min): 0.0%
Compound 001 (%) (metabolite mesembrine), Rat Plasma ([5]; time 120 min): >99%
Prodrug (%) remaining, Rat Plasma ([5]; time 120 min): 0.0%
Compound 001 (%) (metabolite mesembrine), Rat Plasma ([5]; time 240 min): >99%
Prodrug (%) remaining, Rat Plasma ([5]; time 240 min): 0.0%

COc1ccc([C@@]23CCC(OC(=O)c4ccccc4C)=C[C@@H]2N(C)CC3)cc1OC [Compound 298, [(3aS,7aS)-3a-(3,4-dimethoxyphenyl)-1-methyl-3,4,5,7a-tetrahydro-2H-indol-6-yl]2-methylbenzoate]
Mouse Plasma Compound 001 (%) ([6]; 15 min): 34.0%
Mouse Plasma Compound 001 (%) ([6]; 30 min): 44.5%
Mouse Plasma Compound 001 (%) ([6]; 60 min): 60.1%
Mouse Plasma Compound 001 (%) ([6]; 120 min): 64.3%
Mouse Plasma Compound 001 (%) ([6]; 240 min): 64.8%
Condition 1 Conversion (%) ([1]; time 1 min): 0%
Condition 1 Conversion (%) ([1]; time 5 min): 0%
Condition 1 Conversion (%) ([1]; time 30 min): 0%
Condition 1 Conversion (%) ([1]; time 1 h): 0%
Condition 1 Conversion (%) ([1]; time 4 h): 0%
Condition 1 Conversion (%) ([1]; time 24 h): 0%
Condition 2 Conversion (%) ([3]; time 1 min): 0%
Condition 2 Conversion (%) ([3]; time 5 min): 0%
Condition 2 Conversion (%) ([3]; time 30 min): 0%
Condition 2 Conversion (%) ([3]; time 1 h): 0%
Condition 2 Conversion (%) ([3]; time 4 h): 0%
Condition 2 Conversion (%) ([3]; time 24 h): 0%
Human Plasma Prodrug (%) ([7]; 0 min): 100.0%
Human Plasma Prodrug (%) ([7]; 15 min): >99%
Human Plasma Prodrug (%) ([7]; 60 min): 97.5%
Human Plasma Prodrug (%) ([7]; 240 min): 90.9%

COc1ccc([C@@]23CCC(OC(=O)c4ccc(C(C)C)cc4)=C[C@@H]2N(C)CC3)cc1OC [Compound 371, (3aS,7aS)-3a-(3,4-dimethoxyphenyl)-1-methyl-2,3,3a,4,5,7a-hexahydro-1H-indol-6-yl4-isopropylbenzoate]
Mouse Plasma Compound 001 (%) ([6]; 0 min): 28.4%
Mouse Plasma Compound 001 (%) ([6]; 15 min): 31.54%
Mouse Plasma Compound 001 (%) ([6]; 30 min): 29.63%
Mouse Plasma Compound 001 (%) ([6]; 60 min): 30.25%
Mouse Plasma Compound 001 (%) ([6]; 120 min): 26.59%
Mouse Plasma Compound 001 (%) ([6]; 240 min): 19.82%
Human Plasma Prodrug (%) ([8]; 0 min): 100%
Human Plasma Prodrug (%) ([8]; 15 min): 99%
Human Plasma Prodrug (%) ([8]; 30 min): 92%
Human Plasma Prodrug (%) ([8]; 60 min): 87%
Human Plasma Prodrug (%) ([8]; 120 min): 78%
Human Plasma Prodrug (%) ([8]; 240 min): 27%
Mouse Plasma Prodrug (%) ([9]; 0 min): 100%
Mouse Plasma Prodrug (%) ([9]; 15 min): 10%
Mouse Plasma Prodrug (%) ([9]; 30 min): 0%
Mouse Plasma Prodrug (%) ([9]; 60 min): 0%
Mouse Plasma Prodrug (%) ([9]; 120 min): 0%
Mouse Plasma Prodrug (%) ([9]; 240 min): 0%
Human Plasma Compound 001 (%) ([7]; 0 min): 0.00%
Human Plasma Compound 001 (%) ([7]; 60 min): 2.67%
Human Plasma Compound 001 (%) ([7]; 120 min): 5.08%
Human Plasma Compound 001 (%) ([7]; 240 min): 3.85%
Prodrug (%) remaining, Rat Plasma ([10]; 0 h): 100.0%
Prodrug (%) remaining, Rat Plasma ([10]; 10 min): 5.0%
Prodrug (%) remaining, Rat Plasma ([10]; 0.5 h): 0.2%
Prodrug (%) remaining, Rat Plasma ([10]; 1 h): 0.1%
Prodrug (%) remaining, Rat Plasma ([10]; 2 h): 0.0%
Prodrug (%) remaining, Rat Plasma ([10]; 4 h): 0.0%
Prodrug (%) remaining, Human Plasma ([11]; 0 h): 100.0%
Prodrug (%) remaining, Human Plasma ([11]; 10 min): >99%
Prodrug (%) remaining, Human Plasma ([11]; 0.5 h): 94.4%
Prodrug (%) remaining, Human Plasma ([11]; 1 h): 90.7%
Prodrug (%) remaining, Human Plasma ([11]; 2 h): 91.3%
Prodrug (%) remaining, Human Plasma ([11]; 4 h): 78.0%

COc1ccc([C@@]23CCC(OC(=O)c4c(C)cccc4C)=C[C@@H]2N(C)CC3)cc1OC [Compound 372, (3aS,7aS)-3a-(3,4-dimethoxyphenyl)-1-methyl-2,3,3a,4,5,7a-hexahydro-1H-indol-6-yl2,6-dimethylbenzoate]
Mouse Plasma Compound 001 (%) ([6]; 0 min): 0%
Human Plasma Prodrug (%) ([8]; 0 min): 100%
Human Plasma Prodrug (%) ([8]; 15 min): 97%
Human Plasma Prodrug (%) ([8]; 30 min): 99%
Human Plasma Prodrug (%) ([8]; 60 min): 94%
Human Plasma Prodrug (%) ([8]; 120 min): 81%
Human Plasma Prodrug (%) ([8]; 240 min): 38%
Mouse Plasma Prodrug (%) ([9]; 0 min): 100%
Mouse Plasma Prodrug (%) ([9]; 15 min): 92%
Mouse Plasma Prodrug (%) ([9]; 30 min): 91%
Mouse Plasma Prodrug (%) ([9]; 60 min): 88%
Mouse Plasma Prodrug (%) ([9]; 120 min): 73%
Mouse Plasma Prodrug (%) ([9]; 240 min): 64%
Human Plasma Compound 001 (%) ([7]; 0 min): 0.00%
Prodrug (%) remaining, Rat Plasma ([10]; 0 h): 100.0%
Prodrug (%) remaining, Rat Plasma ([10]; 10 min): >99%
Prodrug (%) remaining, Rat Plasma ([10]; 0.5 h): >99%
Prodrug (%) remaining, Rat Plasma ([10]; 1 h): >99%
Prodrug (%) remaining, Rat Plasma ([10]; 2 h): 98.4%
Prodrug (%) remaining, Rat Plasma ([10]; 4 h): >99%
Prodrug (%) remaining, Human Plasma ([11]; 0 h): 100.0%
Prodrug (%) remaining, Human Plasma ([11]; 10 min): >99%
Prodrug (%) remaining, Human Plasma ([11]; 0.5 h): >99%
Prodrug (%) remaining, Human Plasma ([11]; 1 h): >99%
Prodrug (%) remaining, Human Plasma ([11]; 2 h): >99%
Prodrug (%) remaining, Human Plasma ([11]; 4 h): >99%
